The assay concerns Adjuvant-Induced Arthritis. The assay can be described thus: Established Adjuvant-Induced Arthritis in Rats. The assay is classed as in vivo, Charles River Lewis male rats. To be noted: for ED50: Rattus norvegicus, 168 h, read-out: ED50 = effective dose for 50% decrease from control paw volume. As for the experimental part:
A procedure for detecting and comparing the antiinflammatory activity of compounds in this series and standard drugs for which there is a good correlation with human efficacy is the adjuvant-induced arthritis test in rats.
Established Adjuvant-Induced Arthritis in Rats
Charles River Lewis male rats (130-150 grams) are injected subcutaneously in plantar area of the right hind paw with 0.1 ml of adjuvant (Difco heatkilled, lyophilized Mycobacterium butyricum suspended in mineral oil 5 mg/ml). 20 Non-arthritic controls are injected with mineral oil. The animals are held for 2 weeks to allow development of arthritis. Paw volumes (uninjected, left hind paw) are measured and the adjuvant injected rats are culled and distributed to treatment groups of 10 of equal disease severity. Non-arthritic controls are distributed to 2 groups of 10. The rats are given oral doses of compound or PVA-Acacia (Polyvinyl Alcohol 1%, Gum Acacia, U.S.P. 5%, Methylparaben 0.5%) (10 ml/kg) by gavage on that day and on the 6 following days. One day after the last dose the paw volumes (uninjected, left hind paw) are measured using a Ugo Basile Volume Differential Meter Model 7101. [formula]
Dose-response regression lines of the % decrease are plotted on semi-log paper by visual fit and the ED50% decrease from control paw volume is determined by inspection.

Setting [1] is: oral by gavage, daily, 7 days, dose-response regression lines, by visual fit.

Read-outs that look alike come from different tables or passages of the source.

Turning to `CC(=O)Oc1ccccc1C(=O)O` [Aspirin, reference compound], under “po”, the ED50 came to 270 mg/kg.
For `COc1ccc(-c2cc(C(N)(C(F)(F)F)C(F)(F)F)sc2-c2ccc(OC)cc2)cc1` [Example 1, 4,5-Bis(4-methoxyphenyl)-α,α-bis(trifluoromethyl)-2-thiophenemethanamine], the “Percent Decrease From Control Paw Volume” value (daily oral dose 27 mg/kg, 7 days, p < 0.001 compared to control by Students "t" test) turned out to be 47%.
In the case of `NC(c1cc(-c2ccc(F)cc2)c(-c2ccc(F)cc2)s1)(C(F)(F)F)C(F)(F)F` [Example 2, 4,5-bis(4-fluorophenyl)-α,α-bis(trifluoromethyl)-2-thiophenemethanamine], under setting [1], the ED50 is 1.3 mg/kg.
Same read-out and setting: with `CSc1ccc(-c2sc(C(N)(C(F)(F)F)C(F)(F)F)cc2-c2ccc(F)cc2)cc1` [Example 3, 4-(4-fluorophenyl)-5-(4-methylthiophenyl)-α,α-bis(trifluoromethyl)-2-thiophenemethanamine] the figure was 9 mg/kg.
As for `NC(c1cc(-c2ccc(F)cc2)c(-c2ccc(Cl)cc2)s1)(C(F)(F)F)C(F)(F)F` [Example 4], the “Percent Decrease From Control Paw Volume” value (daily oral dose 9 mg/kg, 7 days, p < 0.1 compared to control by Students "t" test) was found to be 37%.
`NC(c1cc(-c2ccccc2)c(-c2ccccc2)s1)(C(F)(F)F)C(F)(F)F` [Example 5]: under setting [1], the ED50 was found to be 17 mg/kg.
The same measure, in the same setting: as for `NC(c1cc(-c2ccc(F)cc2)c(-c2ccc(F)cc2)s1)(C(F)(F)F)C(F)(F)Cl` (stereo not shown) [Example 6], the figure is 3.8 mg/kg.
The same measure, in the same setting: with `NC(c1cc(-c2ccc(F)cc2)c(-c2ccc(F)cc2)s1)(C(F)F)C(F)(F)F` (stereo not shown) [Example 7] the figure was 10.5 mg/kg.
For `Cc1ccc(-c2cc(C(N)(C(F)(F)F)C(F)(F)F)sc2-c2ccc(C)cc2)cc1` [Example 13], where the note is “daily oral dose 24 mg/kg, 7 days, p < 0.05 compared to control by Students "t" test”, the “Percent Decrease From Control Paw Volume” value is 27%.
As to `NC(c1cc(-c2ccccc2F)c(-c2ccccc2F)s1)(C(F)(F)F)C(F)(F)F` [Example 18], the “Percent Decrease From Control Paw Volume” value (daily oral dose 81 mg/kg, 7 days, p < 0.001 compared to control by Students "t" test) is reported as 41%.
In the case of `CNC(c1cc(-c2ccc(F)cc2)c(-c2ccc(F)cc2)s1)(C(F)(F)F)C(F)(F)F` [Example 28, 1-[4,5-Bis(4-fluorophenyl)thiophen-2-yl]-2,2,2-trifluoro-1-trifluoromethyl-N-methylethanamine], the ED50 under setting [1] turned out to be 6.2 mg/kg.
With `COc1ccc2c(c1)c(CC(=O)O)c(C)n2C(=O)c1ccc(Cl)cc1` [Indomethacin, reference compound], the ED50 (po) turned out to be 0.25 mg/kg.
As for `CCCCC1C(=O)N(c2ccccc2)N(c2ccccc2)C1=O` [Phenylbutazone, reference compound], the ED50 under setting [1] was determined as 10 mg/kg.

One may read the ED50 as the midpoint of the dose-response relation.

The record behind these values is patent publication US4427693A, “Antiinflammatory 4,5-diaryl-α,α-bis (polyhalomethyl)-2-thiophenemethanamines” (E. I. Du Pont de Nemours and Company, priority 1981, dated 1984).
